Experiment [1] has as its target Macrophage metalloelastase (Homo sapiens, UniProt P39900). In words: Inhibition of MMP12.
The target in experiment [2] is Stromelysin-1 (Homo sapiens, UniProt P08254).
Experiment [3] has as its target Stromelysin-3 (Homo sapiens, UniProt P24347). In words: Inhibition of MMP11.
Experiment [4] has as its target Angiotensin-converting enzyme (Homo sapiens, UniProt P12821). As to the kind of experiment: Inhibition of ACE.
For experiment [5], the target named is Matrix metalloproteinase-14 (Homo sapiens, UniProt P50281). As to the kind of experiment: Inhibition of MMP14.
In experiment [6] the target is T1, Interstitial collagenase (Homo sapiens, UniProt P03956).
T1 sequence (P03956 whole entry): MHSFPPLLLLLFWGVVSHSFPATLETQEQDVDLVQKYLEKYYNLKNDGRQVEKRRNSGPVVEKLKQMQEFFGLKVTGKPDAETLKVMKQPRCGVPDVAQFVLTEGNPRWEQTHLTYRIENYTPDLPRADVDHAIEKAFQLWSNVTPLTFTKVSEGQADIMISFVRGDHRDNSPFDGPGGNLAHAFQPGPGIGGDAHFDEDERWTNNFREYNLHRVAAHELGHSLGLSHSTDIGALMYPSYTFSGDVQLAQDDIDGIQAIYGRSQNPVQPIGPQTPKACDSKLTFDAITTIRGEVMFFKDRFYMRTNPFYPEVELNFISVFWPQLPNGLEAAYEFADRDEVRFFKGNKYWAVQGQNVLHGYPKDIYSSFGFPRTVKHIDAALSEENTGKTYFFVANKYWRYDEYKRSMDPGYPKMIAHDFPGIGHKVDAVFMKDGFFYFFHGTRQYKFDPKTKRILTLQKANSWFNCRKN

In experiment [7] the target is Disintegrin and metalloproteinase domain-containing protein 17 (Homo sapiens, UniProt P78536). In words: Inhibition of TACE.
Sequence of Disintegrin and metalloproteinase domain-containing protein 17 (P78536 whole entry, the tested form may be a part): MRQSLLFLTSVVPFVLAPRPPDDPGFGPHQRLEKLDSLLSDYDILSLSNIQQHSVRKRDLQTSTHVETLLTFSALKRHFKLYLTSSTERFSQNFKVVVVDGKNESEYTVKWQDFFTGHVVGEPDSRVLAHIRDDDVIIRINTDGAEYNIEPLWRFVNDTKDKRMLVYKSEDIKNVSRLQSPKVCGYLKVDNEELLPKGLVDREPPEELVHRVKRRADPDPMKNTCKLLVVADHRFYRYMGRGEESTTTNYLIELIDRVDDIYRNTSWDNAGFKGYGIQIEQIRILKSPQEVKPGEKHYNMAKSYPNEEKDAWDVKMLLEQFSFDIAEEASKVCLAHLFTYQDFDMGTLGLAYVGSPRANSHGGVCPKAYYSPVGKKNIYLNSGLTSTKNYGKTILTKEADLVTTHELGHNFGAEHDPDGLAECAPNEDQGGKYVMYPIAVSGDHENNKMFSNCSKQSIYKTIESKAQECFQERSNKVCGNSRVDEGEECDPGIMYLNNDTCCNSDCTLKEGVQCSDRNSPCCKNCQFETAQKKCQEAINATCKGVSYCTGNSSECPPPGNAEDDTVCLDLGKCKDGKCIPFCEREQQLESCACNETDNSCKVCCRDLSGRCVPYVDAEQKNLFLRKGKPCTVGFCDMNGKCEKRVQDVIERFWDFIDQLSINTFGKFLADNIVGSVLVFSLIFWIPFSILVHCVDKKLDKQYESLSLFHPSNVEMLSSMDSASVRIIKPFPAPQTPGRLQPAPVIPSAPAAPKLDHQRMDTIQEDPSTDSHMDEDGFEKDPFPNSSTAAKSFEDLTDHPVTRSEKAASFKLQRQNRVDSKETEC
Experiment [8] addresses 72 kDa type IV collagenase (Homo sapiens, UniProt P08253).
Experiment [9] concerns the target Neutrophil collagenase (Homo sapiens, UniProt P22894). As to the kind of experiment: Inhibition of MMP8.
For experiment [10], the target named is T2, Matrilysin (Homo sapiens, UniProt P09237).
T2 sequence (P09237 whole entry): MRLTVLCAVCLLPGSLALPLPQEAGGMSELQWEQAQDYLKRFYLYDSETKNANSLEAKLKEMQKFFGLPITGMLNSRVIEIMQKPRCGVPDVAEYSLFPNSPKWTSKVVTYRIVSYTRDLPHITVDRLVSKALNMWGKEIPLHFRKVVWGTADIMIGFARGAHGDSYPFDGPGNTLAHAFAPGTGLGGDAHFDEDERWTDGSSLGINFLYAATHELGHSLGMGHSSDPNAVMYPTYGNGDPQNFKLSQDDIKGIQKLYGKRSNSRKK

Experiment [11] deals with Neprilysin (Homo sapiens, UniProt P08473). As to the kind of experiment: Inhibition of NEP.
Experiment [12] deals with Matrix metalloproteinase-9 (Homo sapiens, UniProt P14780). In words: Inhibition of MMP9.
Sequence of Matrix metalloproteinase-9 (P14780 whole entry): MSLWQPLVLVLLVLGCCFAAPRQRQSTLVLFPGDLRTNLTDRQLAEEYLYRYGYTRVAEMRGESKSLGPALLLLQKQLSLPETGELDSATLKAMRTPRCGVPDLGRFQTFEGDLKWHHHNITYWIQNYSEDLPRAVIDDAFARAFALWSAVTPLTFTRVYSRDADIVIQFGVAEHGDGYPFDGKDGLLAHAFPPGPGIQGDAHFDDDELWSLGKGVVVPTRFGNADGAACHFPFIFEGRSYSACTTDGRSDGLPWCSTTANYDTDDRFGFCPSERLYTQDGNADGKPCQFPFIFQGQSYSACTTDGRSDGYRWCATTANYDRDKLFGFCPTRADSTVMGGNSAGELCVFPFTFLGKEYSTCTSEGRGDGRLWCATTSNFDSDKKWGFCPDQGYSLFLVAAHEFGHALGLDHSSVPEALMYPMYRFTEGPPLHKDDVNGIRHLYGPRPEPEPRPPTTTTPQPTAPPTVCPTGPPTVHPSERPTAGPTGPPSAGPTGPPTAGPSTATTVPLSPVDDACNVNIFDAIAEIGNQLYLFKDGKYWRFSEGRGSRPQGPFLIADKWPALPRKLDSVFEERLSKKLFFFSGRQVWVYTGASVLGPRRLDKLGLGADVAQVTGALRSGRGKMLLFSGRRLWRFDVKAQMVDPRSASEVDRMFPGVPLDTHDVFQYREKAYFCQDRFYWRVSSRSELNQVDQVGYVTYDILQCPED
Experiment [13] concerns the target Collagenase 3 (Homo sapiens, UniProt P45452). In words: Inhibition of MMP13.
The target of experiment [14] is Bone morphogenetic protein 1 (Homo sapiens, UniProt P13497). As to the kind of experiment: Inhibition of BMP1.
Experiment [15] deals with Disintegrin and metalloproteinase domain-containing protein 33 (Homo sapiens, UniProt Q9BZ11). In words: Inhibition of ADAM33.
Sequence of Disintegrin and metalloproteinase domain-containing protein 33 (Q9BZ11 whole entry, the tested form may be a part): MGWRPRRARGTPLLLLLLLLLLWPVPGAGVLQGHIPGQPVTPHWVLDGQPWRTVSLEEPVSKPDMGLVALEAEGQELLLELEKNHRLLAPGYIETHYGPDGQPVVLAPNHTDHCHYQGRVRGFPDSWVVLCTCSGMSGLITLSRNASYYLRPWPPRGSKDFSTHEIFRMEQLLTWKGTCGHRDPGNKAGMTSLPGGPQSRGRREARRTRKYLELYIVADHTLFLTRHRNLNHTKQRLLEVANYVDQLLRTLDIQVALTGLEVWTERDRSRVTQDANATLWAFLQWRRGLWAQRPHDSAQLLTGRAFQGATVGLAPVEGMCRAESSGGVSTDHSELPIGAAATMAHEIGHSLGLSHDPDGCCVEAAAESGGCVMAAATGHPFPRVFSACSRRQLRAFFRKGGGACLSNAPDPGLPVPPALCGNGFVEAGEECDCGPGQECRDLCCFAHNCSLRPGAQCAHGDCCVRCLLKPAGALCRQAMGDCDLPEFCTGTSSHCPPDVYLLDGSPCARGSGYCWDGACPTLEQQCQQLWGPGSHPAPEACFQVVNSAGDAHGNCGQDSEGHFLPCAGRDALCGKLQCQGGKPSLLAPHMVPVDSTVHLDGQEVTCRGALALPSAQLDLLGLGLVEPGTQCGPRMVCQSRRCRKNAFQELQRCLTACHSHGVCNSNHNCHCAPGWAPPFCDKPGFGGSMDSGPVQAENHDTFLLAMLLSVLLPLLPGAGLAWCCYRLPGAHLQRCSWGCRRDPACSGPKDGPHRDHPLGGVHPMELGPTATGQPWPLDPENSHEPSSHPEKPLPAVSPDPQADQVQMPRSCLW
The nature of experiment [16]: tissue or blood.
Experiment [17] concerns the target Disintegrin and metalloproteinase domain-containing protein 9 (Homo sapiens, UniProt Q13443).

This passage reports Ki and IC50 results from ChEMBL document CHEMBL1141723, “Specific targeting of metzincin family members with small-molecule inhibitors: progress toward a multifarious challenge” (Bioorg Med Chem, 2008).

Sequence of Stromelysin-1 (P08254 whole entry): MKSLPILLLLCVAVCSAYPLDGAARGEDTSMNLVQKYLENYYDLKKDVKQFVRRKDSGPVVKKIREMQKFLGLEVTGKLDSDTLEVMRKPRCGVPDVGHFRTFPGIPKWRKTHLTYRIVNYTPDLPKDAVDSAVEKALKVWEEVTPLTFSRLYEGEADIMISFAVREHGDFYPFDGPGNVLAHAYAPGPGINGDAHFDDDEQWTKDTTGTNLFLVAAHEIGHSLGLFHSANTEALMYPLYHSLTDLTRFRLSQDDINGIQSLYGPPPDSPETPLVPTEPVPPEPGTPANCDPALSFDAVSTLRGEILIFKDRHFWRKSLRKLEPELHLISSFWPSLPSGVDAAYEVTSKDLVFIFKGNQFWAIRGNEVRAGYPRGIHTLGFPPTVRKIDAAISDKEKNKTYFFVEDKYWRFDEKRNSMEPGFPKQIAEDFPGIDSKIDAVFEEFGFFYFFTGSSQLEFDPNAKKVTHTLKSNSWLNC
Sequence of 72 kDa type IV collagenase (P08253 whole entry): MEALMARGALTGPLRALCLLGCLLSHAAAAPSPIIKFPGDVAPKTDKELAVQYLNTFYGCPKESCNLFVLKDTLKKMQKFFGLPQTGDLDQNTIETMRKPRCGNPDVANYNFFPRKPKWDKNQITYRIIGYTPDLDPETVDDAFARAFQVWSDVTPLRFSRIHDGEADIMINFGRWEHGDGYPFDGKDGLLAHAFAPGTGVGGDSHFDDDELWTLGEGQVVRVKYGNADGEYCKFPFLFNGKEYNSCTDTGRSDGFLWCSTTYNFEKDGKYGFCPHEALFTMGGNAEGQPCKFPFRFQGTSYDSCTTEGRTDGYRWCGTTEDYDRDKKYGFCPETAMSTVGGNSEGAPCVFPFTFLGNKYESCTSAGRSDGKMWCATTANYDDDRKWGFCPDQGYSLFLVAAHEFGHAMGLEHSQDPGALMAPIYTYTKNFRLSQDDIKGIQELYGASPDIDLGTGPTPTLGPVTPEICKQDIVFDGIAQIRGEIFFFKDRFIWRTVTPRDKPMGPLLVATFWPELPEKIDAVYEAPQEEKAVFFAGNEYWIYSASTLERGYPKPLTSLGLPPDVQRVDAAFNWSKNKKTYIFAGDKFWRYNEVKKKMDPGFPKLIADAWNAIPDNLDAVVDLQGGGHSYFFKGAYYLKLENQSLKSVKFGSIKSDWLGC
Sequence of Stromelysin-3 (P24347 whole entry): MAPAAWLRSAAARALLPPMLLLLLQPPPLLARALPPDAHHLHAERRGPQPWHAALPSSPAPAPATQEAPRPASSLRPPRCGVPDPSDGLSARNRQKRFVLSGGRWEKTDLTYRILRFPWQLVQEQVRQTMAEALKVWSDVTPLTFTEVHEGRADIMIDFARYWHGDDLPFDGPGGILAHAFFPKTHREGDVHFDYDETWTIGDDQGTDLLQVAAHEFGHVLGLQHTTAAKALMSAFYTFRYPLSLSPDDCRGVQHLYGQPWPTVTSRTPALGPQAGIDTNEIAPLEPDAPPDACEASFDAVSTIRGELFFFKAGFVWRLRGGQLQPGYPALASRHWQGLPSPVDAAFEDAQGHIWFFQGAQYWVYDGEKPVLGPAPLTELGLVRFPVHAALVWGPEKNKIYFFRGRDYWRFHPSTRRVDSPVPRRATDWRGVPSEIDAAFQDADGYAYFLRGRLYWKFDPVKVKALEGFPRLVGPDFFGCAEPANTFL
Sequence of Neutrophil collagenase (P22894 whole entry): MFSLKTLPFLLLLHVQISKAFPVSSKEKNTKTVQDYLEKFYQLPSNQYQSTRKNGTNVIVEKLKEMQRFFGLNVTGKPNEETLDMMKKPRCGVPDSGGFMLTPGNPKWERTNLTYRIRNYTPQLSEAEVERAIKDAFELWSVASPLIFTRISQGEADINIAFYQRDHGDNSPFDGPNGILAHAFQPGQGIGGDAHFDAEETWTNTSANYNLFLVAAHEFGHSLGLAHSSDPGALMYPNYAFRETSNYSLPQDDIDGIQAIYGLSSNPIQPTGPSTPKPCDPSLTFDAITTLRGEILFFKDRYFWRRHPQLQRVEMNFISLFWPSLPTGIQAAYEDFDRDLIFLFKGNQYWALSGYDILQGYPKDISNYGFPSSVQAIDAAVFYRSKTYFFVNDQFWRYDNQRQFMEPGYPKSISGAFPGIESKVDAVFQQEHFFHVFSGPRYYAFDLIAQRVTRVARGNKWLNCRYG
Sequence of Macrophage metalloelastase (P39900 whole entry): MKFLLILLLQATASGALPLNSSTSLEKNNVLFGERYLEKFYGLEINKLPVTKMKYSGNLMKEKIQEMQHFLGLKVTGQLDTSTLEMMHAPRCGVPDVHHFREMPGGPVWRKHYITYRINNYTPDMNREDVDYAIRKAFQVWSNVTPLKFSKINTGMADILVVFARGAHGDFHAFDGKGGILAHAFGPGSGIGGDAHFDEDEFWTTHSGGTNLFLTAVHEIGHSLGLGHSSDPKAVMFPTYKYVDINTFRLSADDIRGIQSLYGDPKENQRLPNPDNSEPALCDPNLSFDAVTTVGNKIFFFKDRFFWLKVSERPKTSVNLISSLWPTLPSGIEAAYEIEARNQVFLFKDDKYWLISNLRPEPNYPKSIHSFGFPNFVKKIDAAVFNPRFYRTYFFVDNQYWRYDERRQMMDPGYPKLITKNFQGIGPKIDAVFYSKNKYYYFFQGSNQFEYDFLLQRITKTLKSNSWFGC

Turning to `NC(=O)[C@H](CCC(=O)O)NC(=O)[C@H](CCC(=O)O)NC(=O)[C@H](Cc1cc(-c2ccc(-c3cccc(Cl)c3)cc2)no1)CP(=O)(O)c1ccc(Br)cc1`, the Ki was 0.19 nM in experiment [1]; 40 nM in experiment [2]; 18400 nM in experiment [3]; > 100000 nM in [4]; 140 nM in [5]; 67000 nM in experiment [6]. The Ki was > 100000 nM in experiment [7]; 192 nM in [8]; 271 nM in experiment [9]; 626 nM in experiment [10]; > 100000 nM in experiment [11]; 1260 nM in [12]. Moreover, the Ki in [13] is 49 nM.
As for `CS(=O)(=O)NCc1noc([C@H](CCCC2CCCCC2)CC(=O)NO)n1`, the Ki was > 100000 nM in experiment [2]; 11 nM in experiment [14]; > 100000 nM in experiment [5]; 1 nM in experiment [6]; > 100000 nM in experiment [12]; 91000 nM in [13].
With `Cc1cc(COc2ccc([C@]3(C)CCN([C@H](C)C(=O)NO)C3=O)cc2)c2ccccc2n1`, the inhibition constant (Ki) in experiment [15] is 15 nM. In experiment [16], this molecule yielded a half-inhibitory concentration (IC50) of 0.35 nM.
Regarding `COC(=O)N1CC2(CC2)C[C@H](C(=O)NO)[C@H]1C(=O)N1CC=C(c2ccccc2)CC1`, the IC50 in experiment [2] is 3560 nM; in [17] it was > 5000 nM; in experiment [15] it was 1030 nM; in experiment [6], > 5000 nM; in experiment [8], 35 nM; in experiment [10] it was > 5000 nM. For the same molecule, the IC50 in [12] turned out to be 304 nM.

As a reminder, the Ki is the dissociation constant of the complex between target and ligand, obtained from inhibition or displacement. A higher Ki goes with lower affinity. The IC50 is the concentration that inhibits the measured activity by half. A low value points to greater potency in that assay.
